Data from patent publication US6670381B2, “Benzamide derivatives as thrombin inhibitors” (SmithKline Beecham Corporation, priority 1998, dated 2003).

Key:
human α-thrombin = human α-thrombin (Homo sapiens, UniProt P00734); experiment: Thrombin inhibitory activity, chromogenic assay; type: biochemical; details: substrate N-p-tosyl-gly-pro-lys p-nitroanilide 100 μM, thrombin 1 nM, pH 7.4, room temperature
Procedure: All dilutions were made in a buffer consisting of: 50 mM HEPES, 150 mM NaCl, 5 mM CaCl2, 0.1% PEG and at pH 7.4. Briefly, the substrate (final conc. of 100 μM) was added to thrombin (final conc. of 1 nM) and the reaction monitored for 10 mins at 405 nm using a Biotek EL340 plate reader; the assay was performed at room temperature. To obtain IC50s the data were analyzed using Kineticalc™ and processed using ActivityBase™ to obtain the IC50 value.

human plasma = experiment: APTT (activated partial thromboplastin time), clotting time of human plasma in vitro; type: biochemical; details: pooled citrated human plasma; for APTT: concentration of compound to extend the normal APTT by 1.5×: 1.5× extension of clotting time; for APTT: degree of extension (ratio of clotting times in presence or absence of compound): at 100 nM compound
Procedure: Pooled citrated (0.38% trisodium citrate w/v) plasma was prepared from blood taken from healthy volunteers and stored at −70° C. The APTT tests were performed using a Thrombtrack 4 from Nycomed. Actin reagent (a reconstituted extract from dehydrated rabbit brain, also containing ellagic acid) was obtained from Baxter Healthcare Corporation USA. Briefly, citrated plasma was added to either compound or distilled water followed by addition of actin reagent. These were then mixed for 2 min at 37° C. before adding calcium chloride to initiate clotting. Compounds extended the normal clotting time, which is in the range 30-35 seconds, to varying degrees depending on their concentrations. The degrees of extension of the APTT was calculated by the ratio of clotting times in presence or absence of compound. The concentration of a compound to extend the ‘normal’ APTT by 1.5× was used as a criterion for comparing the anti-coagulant activities of compounds.

Structure (SMILES) | IC50 (human α-thrombin) [nM] | APTT: concentration of compound to extend the normal APTT by 1.5× (human plasma) | APTT: degree of extension (ratio of clotting times in presence or absence of compound) (human plasma)
CCN(C(=O)c1cc(C)cc(OC[C@H](C)Nc2ccncc2)c1)C(C)C [Example 1, N-Ethyl-N-isopropyl-3-methyl-5-[2S-(pyridin-4-ylamino)-propoxy]-benzamide] | < 1 | 40 (1.5×) nM | –
Cc1cc(OC[C@H](C)Nc2ccncc2)cc(C(=O)N(C(C)C)C(C)C)c1 [Example 2, N,N-Diisopropyl-3-methyl-5-[2S-(pyridin-4-ylamino)-propoxy]-benzamide] | < 1 | 80 (1.5×) nM | –
Cc1cc(OC[C@H](C)Nc2ccncc2)cc(C(=O)N(C)C(C)C)c1 [Example 3, N-Isopropyl-3,N-dimethyl-5-[2S-(pyridin-4-ylamino)-propoxy]-benzamide] | 3 | 90 (1.5×) nM | –
CCCN(C)C(=O)c1cc(C)cc(OC[C@H](C)Nc2ccncc2)c1 [Example 4, 3,N-Dimethyl-N-propyl-5-[2S-(pyridin-4-ylamino)-propoxy]-benzamide] | 5 | 97 (1.5×) nM | –
CCC(COc1cc(Cl)cc(C(=O)N(C(C)C)C(C)C)c1)Nc1ccncc1.Cl (stereo not shown) [Example 11, 3-Chloro-N,N-diisopropyl-5-[2-(pyridin-4-ylamino)-butoxy]-benzamide hydrochloride] | 26 | 650 (1.5×) nM | –

Second part, led by results:

IC50 (human α-thrombin) [nM] | Structure (SMILES) | APTT: concentration of compound to extend the normal APTT by 1.5× (human plasma) | APTT: degree of extension (ratio of clotting times in presence or absence of compound) (human plasma)
< 1 | CCCN(CCC)C(=O)c1cc(C)cc(OC[C@H](C)Nc2ccncc2)c1 [Example 5, 3-Methyl-N,N-dipropyl-5-[2S-(pyridin-4-ylamino)-propoxy]-benzamide] | 110 (1.5×) nM | –
1.5 | CCCN(CC)C(=O)c1cc(C)cc(OC[C@H](C)Nc2ccncc2)c1 [Example 6, N-Ethyl-3-methyl-N-propyl-5-[2S-(pyridin-4-ylamino)-propoxy]-benzamide] | 120 (1.5×) nM | –
< 1 | CCCCN(CCC)C(=O)c1cc(C)cc(OC[C@H](C)Nc2ccncc2)c1 [Example 7, N-Butyl-3-methyl-N-propyl-5-[2S-(pyridin-4-ylamino)-propoxy]-benzamide] | – | 100 (1.31×)
< 1 | Cc1cc(OC[C@H](C)Nc2ccncc2)cc(C(=O)N(C(C)C)C2CCCCC2)c1 [Example 8, N-Cyclohexyl-N-isopropyl-3-methyl-5-[2S-(pyridin-4-ylamino)-propoxy]-benzamide] | – | 100 (1.32×)
< 1 | CCCN(C(=O)c1cc(C)cc(OC[C@H](C)Nc2ccncc2)c1)C(C)C [Example 9, N-Isopropyl-3-methyl-N-propyl-5-[2S-(pyridin-4-ylamino)-propoxy]-benzamide] | 60 (1.5×) nM | –
3.4 | CCCN(C(=O)c1cc(Cl)cc(OC[C@H](C)Nc2ccncc2)c1)C(C)C [Example 10, 3-Chloro-N-isopropyl-N-propyl-5-[2S-(pyridin-4-ylamino)-propoxy]-benzamide] | – | 100 (1.28×)
